Experimental data published in ChEMBL document CHEMBL5036347, “Design of the naphthyl-diarylpyrimidines as potent non-nucleoside reverse transcriptase inhibitors (NNRTIs) via structure-based extension into the entrance channel” (Eur J Med Chem, 2021).

Test system: not listed separately
Assay: Resistance fold, ratio of EC50 for HIV1 harboring reverse transcriptase Y181C mutant […] to EC50 for wild type HIV1 […]
Format: functional
Conditions: not given
In the case of `COc1cc2cc(C#N)ccc2c(OC)c1Oc1cc(NCC(F)(F)F)nc(Nc2ccc(C#N)cc2)n1`, the “Ratio EC50” value is reported as 10. In the case of `COc1cc2cc(C#N)ccc2c(OC)c1Oc1cc(NCC(C)(C)C)nc(Nc2ccc(C#N)cc2)n1`, the “Ratio EC50” value is reported as 28.

Test system: not listed separately
Assay: Resistance fold, ratio of EC50 for HIV1 harboring reverse transcriptase E138K mutant […] to EC50 for wild type HIV1 […]
Format: functional
Conditions: not given
With `COc1cc2cc(C#N)ccc2c(OC)c1Oc1cc(NCC(F)(F)F)nc(Nc2ccc(C#N)cc2)n1` the “Ratio EC50” value was 2. In the case of `COc1cc2cc(C#N)ccc2c(OC)c1Oc1cc(NCC(C)(C)C)nc(Nc2ccc(C#N)cc2)n1`, the “Ratio EC50” value is reported as 4.

Test system: not listed separately
Assay: Resistance fold, ratio of EC50 for HIV1 harboring reverse transcriptase L100I mutant […] to EC50 for wild type HIV1 […]
Format: functional
Conditions: not given
In the case of `COc1cc2cc(C#N)ccc2c(OC)c1Oc1cc(NCC(F)(F)F)nc(Nc2ccc(C#N)cc2)n1`, the “Ratio EC50” value is reported as 14. In the case of `COc1cc2cc(C#N)ccc2c(OC)c1Oc1cc(NCC(C)(C)C)nc(Nc2ccc(C#N)cc2)n1`, the “Ratio EC50” value is reported as 103.

Test system: Human immunodeficiency virus 1
Assay: Antiviral activity against HIV1 harboring reverse transcriptase Y181C mutant infected in human MT4 cells assessed as protection against virus-induced cytopathic effect incubated for 5 days by MTT assay
Format: functional, organism-based
Conditions: Human immunodeficiency virus 1, MT4, 120 h
`COc1cc2cc(C#N)ccc2c(OC)c1Oc1cc(NCC(F)(F)F)nc(Nc2ccc(C#N)cc2)n1` gave an EC50 of 0.36 µM. For `COc1cc2cc(C#N)ccc2c(OC)c1Oc1cc(NCC(C)(C)C)nc(Nc2ccc(C#N)cc2)n1`, the EC50 was 2.38 µM.

Test system: Human immunodeficiency virus 2
Assay: Anti-HIV activity against HIV2 ROD infected in human MT4 cells assessed as reduction in virus-induced cytopathic effect incubated for 5 days by MTT assay
Format: functional, organism-based
Conditions: Human immunodeficiency virus 2, ROD, MT4, 120 h
In the case of `COc1cc2cc(C#N)ccc2c(OC)c1Oc1cc(NCC(F)(F)F)nc(Nc2ccc(C#N)cc2)n1`, the EC50 is reported as 186 µM. For `COc1cc2cc(C#N)ccc2c(OC)c1Oc1cc(NCC(C)(C)C)nc(Nc2ccc(C#N)cc2)n1`, the EC50 was > 1000 µM.

Test system: not listed separately
Assay: Resistance fold, ratio of EC50 for HIV1 harboring reverse transcriptase K103N/Y181C double mutant […] to EC50 for wild type HIV1 […]
Format: functional
Conditions: not given
With `COc1cc2cc(C#N)ccc2c(OC)c1Oc1cc(NCC(F)(F)F)nc(Nc2ccc(C#N)cc2)n1` the “Ratio EC50” value was 71. In the case of `COc1cc2cc(C#N)ccc2c(OC)c1Oc1cc(NCC(C)(C)C)nc(Nc2ccc(C#N)cc2)n1`, the “Ratio EC50” value is reported as >11723.

Molecular target: Human immunodeficiency virus type 1 reverse transcriptase (Human immunodeficiency virus 1, UniProt Q72547)
Assay: Inhibition of wild type HIV1 reverse transcriptase using oligo(dT)16 as primer measured after 40 mins by picogreen-dye based spectrofluorimetric analysis
Conditions: not given
With `COc1cc2cc(C#N)ccc2c(OC)c1Oc1cc(NCC(F)(F)F)nc(Nc2ccc(C#N)cc2)n1` the IC50 was 0.14 µM. For `COc1cc2cc(C#N)ccc2c(OC)c1Oc1cc(NCC(C)(C)C)nc(Nc2ccc(C#N)cc2)n1`, the IC50 was 0.51 µM.

Test system: Human immunodeficiency virus 1
Assay: Antiviral activity against HIV1 harboring reverse transcriptase F227L/V106A mutant infected in human MT4 cells assessed as protection against virus-induced cytopathic effect incubated for 5 days by MTT assay
Format: functional, organism-based
Conditions: Human immunodeficiency virus 1, MT4, 120 h
`COc1cc2cc(C#N)ccc2c(OC)c1Oc1cc(NCC(F)(F)F)nc(Nc2ccc(C#N)cc2)n1` showed an EC50 of 5.91 µM. For `COc1cc2cc(C#N)ccc2c(OC)c1Oc1cc(NCC(C)(C)C)nc(Nc2ccc(C#N)cc2)n1`, the EC50 was > 1000 µM.

Test system: not listed separately
Assay: Resistance fold, ratio of EC50 for HIV1 harboring reverse transcriptase K103N mutant […] to EC50 for wild type HIV1 […]
Format: functional
Conditions: not given
With `COc1cc2cc(C#N)ccc2c(OC)c1Oc1cc(NCC(F)(F)F)nc(Nc2ccc(C#N)cc2)n1` the “Ratio EC50” value was 1. With `COc1cc2cc(C#N)ccc2c(OC)c1Oc1cc(NCC(C)(C)C)nc(Nc2ccc(C#N)cc2)n1` the “Ratio EC50” value was 2.

Test system: not listed separately
Assay: Selectivity index, ratio of CC50 for cytotoxicity against human MT4 cells to EC50 of Anti-HIV activity against HIV-1 IIIB infected in human MT4
Format: toxicity, cell-based
Conditions: read-out: Selectivity Index
For `COc1cc2cc(C#N)ccc2c(OC)c1Oc1cc(NCC(F)(F)F)nc(Nc2ccc(C#N)cc2)n1`, the selectivity ratio was > 6820. In the case of `COc1cc2cc(C#N)ccc2c(OC)c1Oc1cc(NCC(C)(C)C)nc(Nc2ccc(C#N)cc2)n1`, the selectivity ratio is reported as > 2880.

Test system: Human immunodeficiency virus 1
Assay: Antiviral activity against HIV1 harboring reverse transcriptase K103N mutant infected in human MT4 cells assessed as protection against virus-induced cytopathic effect incubated for 5 days by MTT assay
Format: functional, organism-based
Conditions: Human immunodeficiency virus 1, MT4, 120 h
Molecule `COc1cc2cc(C#N)ccc2c(OC)c1Oc1cc(NCC(F)(F)F)nc(Nc2ccc(C#N)cc2)n1` has an EC50 of 0.04 µM. For `COc1cc2cc(C#N)ccc2c(OC)c1Oc1cc(NCC(C)(C)C)nc(Nc2ccc(C#N)cc2)n1`, the EC50 was 0.14 µM.

Test system: not listed separately
Assay: Cytotoxicity against human MT4 cells assessed as reduction in cell viability incubated for 5 days by MTT assay
Format: cell-based
Conditions: human, MT4 cells; time 5 day
For `COc1cc2cc(C#N)ccc2c(OC)c1Oc1cc(NCC(F)(F)F)nc(Nc2ccc(C#N)cc2)n1`, the CC50 at 120 h was > 125 µM. For `COc1cc2cc(C#N)ccc2c(OC)c1Oc1cc(NCC(C)(C)C)nc(Nc2ccc(C#N)cc2)n1`, the CC50 at 120 h was > 125 µM.

Test system: not listed separately
Assay: Resistance fold, ratio of EC50 for HIV1 harboring reverse transcriptase Y188L mutant […] to EC50 for wild type HIV1 […]
Format: functional
Conditions: not given
For `COc1cc2cc(C#N)ccc2c(OC)c1Oc1cc(NCC(F)(F)F)nc(Nc2ccc(C#N)cc2)n1`, the “Ratio EC50” value was 51. In the case of `COc1cc2cc(C#N)ccc2c(OC)c1Oc1cc(NCC(C)(C)C)nc(Nc2ccc(C#N)cc2)n1`, the “Ratio EC50” value is reported as 1313.

Test system: Human immunodeficiency virus 1
Assay: Antiviral activity against HIV1 harboring reverse transcriptase Y188L mutant infected in human MT4 cells assessed as protection against virus-induced cytopathic effect incubated for 5 days by MTT assay
Format: functional, organism-based
Conditions: Human immunodeficiency virus 1, MT4, 120 h
Work on `COc1cc2cc(C#N)ccc2c(OC)c1Oc1cc(NCC(F)(F)F)nc(Nc2ccc(C#N)cc2)n1` yielded an EC50 of 1.8 µM. `COc1cc2cc(C#N)ccc2c(OC)c1Oc1cc(NCC(C)(C)C)nc(Nc2ccc(C#N)cc2)n1` showed an EC50 of 112 µM.

Test system: Human immunodeficiency virus 1
Assay: Anti-HIV activity against HIV-1 IIIB infected in human MT4 cells assessed as reduction in virus-induced cytopathic effect incubated for 5 days by MTT assay
Format: functional, organism-based
Conditions: Human immunodeficiency virus 1, IIIB, MT4, 120 h
`COc1cc2cc(C#N)ccc2c(OC)c1Oc1cc(NCC(F)(F)F)nc(Nc2ccc(C#N)cc2)n1` gave an EC50 of 0.035 µM. `COc1cc2cc(C#N)ccc2c(OC)c1Oc1cc(NCC(C)(C)C)nc(Nc2ccc(C#N)cc2)n1` showed an EC50 of 0.085 µM.

Test system: Human immunodeficiency virus 1
Assay: Antiviral activity against HIV1 harboring reverse transcriptase L100I mutant infected in human MT4 cells assessed as protection against virus-induced cytopathic effect incubated for 5 days by MTT assay
Format: functional, organism-based
Conditions: Human immunodeficiency virus 1, MT4, 120 h
`COc1cc2cc(C#N)ccc2c(OC)c1Oc1cc(NCC(F)(F)F)nc(Nc2ccc(C#N)cc2)n1` showed an EC50 of 0.49 µM. `COc1cc2cc(C#N)ccc2c(OC)c1Oc1cc(NCC(C)(C)C)nc(Nc2ccc(C#N)cc2)n1` gave an EC50 of 8.79 µM.

Test system: Human immunodeficiency virus 1
Assay: Antiviral activity against HIV1 harboring reverse transcriptase K103N/Y181C double mutant infected in human MT4 cells assessed as protection against virus-induced cytopathic effect incubated for 5 days by MTT assay
Format: functional, organism-based
Conditions: Human immunodeficiency virus 1, MT4, 120 h
`COc1cc2cc(C#N)ccc2c(OC)c1Oc1cc(NCC(F)(F)F)nc(Nc2ccc(C#N)cc2)n1` showed an EC50 of 2.52 µM. `COc1cc2cc(C#N)ccc2c(OC)c1Oc1cc(NCC(C)(C)C)nc(Nc2ccc(C#N)cc2)n1` gave an EC50 of 1000 µM.

Test system: not listed separately
Assay: Resistance fold, ratio of EC50 for HIV1 harboring reverse transcriptase F227L/V106A double mutant […] to EC50 for wild type HIV1 […]
Format: functional
Conditions: not given
In the case of `COc1cc2cc(C#N)ccc2c(OC)c1Oc1cc(NCC(F)(F)F)nc(Nc2ccc(C#N)cc2)n1`, the “Ratio EC50” value is reported as 168. For `COc1cc2cc(C#N)ccc2c(OC)c1Oc1cc(NCC(C)(C)C)nc(Nc2ccc(C#N)cc2)n1`, the “Ratio EC50” value was >11723.

Test system: Human immunodeficiency virus 1
Assay: Antiviral activity against HIV1 harboring reverse transcriptase E138K mutant infected in human MT4 cells assessed as protection against virus-induced cytopathic effect incubated for 5 days by MTT assay
Format: functional, organism-based
Conditions: Human immunodeficiency virus 1, MT4, 120 h
Molecule `COc1cc2cc(C#N)ccc2c(OC)c1Oc1cc(NCC(F)(F)F)nc(Nc2ccc(C#N)cc2)n1` has an IC50 of 0.073 µM. `COc1cc2cc(C#N)ccc2c(OC)c1Oc1cc(NCC(C)(C)C)nc(Nc2ccc(C#N)cc2)n1` gave an EC50 of 0.31 µM.
